Test results as given in PMC9020739, “Identification of a two-component regulatory system involved in antimicrobial peptide resistance in Streptococcus pneumoniae” (PLoS Pathogens, 2022).
Where a SMILES comes first, the peptide text is derived from it. Bridges are numbered along the chain shown (N, C = ends). [ ]: non-standard residue; d: D form. The star is where a group is joined. X1 = CC[C@H](C)CCCCC(=O)*; Dab = NCC[C@H](N)C(=O)O

Legend:
S. pneumoniae R6 ΔbceAB = assay type: cell-based, Streptococcus pneumoniae; details: R6 strain; 2-fold broth dilution, Todd-Hewitt medium, 37°C, 15 h; two to four biological replicates, each technical duplicates
Experimental: (§1) The MIC of various antimicrobial peptides for R6, R800 and D39 strains was determined by classical 2-fold broth dilution method. Cells were first grown in Todd-Hewitt medium at 37°C without agitation and in anaerobic conditions until the absorbance reaches approximatively 0.3. Complementation strains were grown with 0.5 μM ComS inducer until the appropriate OD. Cells were then diluted at final OD600nm = 0.002 in 96-well plates containing 300 μL of Todd-Hewitt medium (and 2 μM ComS inducer for the complementation strains) with serial dilutions of antimicrobial peptides. Pneumococcal growth was monitored by a microplate reader (TECAN) at 37°C without agitation. The absorbance was followed at 600 nm every 15 min for 15 h.

S. pneumoniae R6 Δtcs01 = assay type: cell-based, Streptococcus pneumoniae; details: R6 strain; 2-fold broth dilution, Todd-Hewitt medium, 37°C, 15 h; two to four biological replicates, each technical duplicates
Experimental: as §1

S. pneumoniae R6 WT = assay type: cell-based, Streptococcus pneumoniae; details: R6 strain; for Minimum Inhibitory Concentration, WT: 2-fold broth dilution, Todd-Hewitt medium, 96-well plates, start OD600 0.002, 37°C, A600 followed 15 h, two to four biological replicates, each technical duplicates; for Fold sensitivity displayed by the KO strains: KO strains versus WT MIC
Experimental: as §1

[1] = system: S. pneumoniae R6 ΔbceAB/tcs01; assay type: cell-based, Streptococcus pneumoniae; details: R6 strain; 2-fold broth dilution, Todd-Hewitt medium, 37°C, 15 h; two to four biological replicates, each technical duplicates
Experimental: as §1

S. pneumoniae R800 Δhk01 = assay type: cell-based, Streptococcus pneumoniae; details: R800 strain; 2-fold broth dilution, Todd-Hewitt medium, 37°C, 15 h; at least biological triplicates, each technical duplicates
Experimental: as §1

[2] = system: S. pneumoniae R800 bceAB-gfp; assay type: cell-based, Streptococcus pneumoniae; details: R800 strain; 2-fold broth dilution, Todd-Hewitt medium, 37°C, 15 h; at least biological triplicates, each technical duplicates
Experimental: as §1

S. pneumoniae D39 WT = assay type: cell-based, Streptococcus pneumoniae; details: D39 strain; for Minimum Inhibitory Concentration, WT: 2-fold broth dilution, Todd-Hewitt medium, 37°C, 15 h, two to four biological replicates, each technical duplicates; for Fold sensitivity diplayed by the KO strains: KO strains versus WT MIC
Experimental: as §1

S. pneumoniae D39 ΔbceAB = assay type: cell-based, Streptococcus pneumoniae; details: D39 strain; 2-fold broth dilution, Todd-Hewitt medium, 37°C, 15 h; two to four biological replicates, each technical duplicates
Experimental: as §1

S. pneumoniae R800 WT = assay type: cell-based, Streptococcus pneumoniae; details: R800 strain; 2-fold broth dilution, Todd-Hewitt medium, 37°C, 15 h; at least biological triplicates, each technical duplicates
Experimental: as §1

[3] = system: S. pneumoniae R800 ΔbceAB-Δhk01-PcomX-hk01; assay type: cell-based, Streptococcus pneumoniae; details: R800 complementation strain, 2 μM ComS inducer; 2-fold broth dilution, Todd-Hewitt medium, 37°C, 15 h; at least biological triplicates, each technical duplicates
Experimental: as §1

[4] = system: S. pneumoniae R800 Δhk01-PcomX-hk01; assay type: cell-based, Streptococcus pneumoniae; details: R800 complementation strain, 2 μM ComS inducer; 2-fold broth dilution, Todd-Hewitt medium, 37°C, 15 h; at least biological triplicates, each technical duplicates
Experimental: as §1

[5] = system: S. pneumoniae R800 ΔbceAB; assay type: cell-based, Streptococcus pneumoniae; details: R800 strain; 2-fold broth dilution, Todd-Hewitt medium, 37°C, 15 h; at least biological triplicates, each technical duplicates
Experimental: as §1

S. pneumoniae D39 Δtcs01 = assay type: cell-based, Streptococcus pneumoniae; details: D39 strain; 2-fold broth dilution, Todd-Hewitt medium, 37°C, 15 h; two to four biological replicates, each technical duplicates
Experimental: as §1

[6] = system: S. pneumoniae D39 ΔbceAB/tcs01; assay type: cell-based, Streptococcus pneumoniae; details: D39 strain; 2-fold broth dilution, Todd-Hewitt medium, 37°C, 15 h; two to four biological replicates, each technical duplicates
Experimental: as §1

[7] = target: BceAB transporter from S. pneumoniae (Streptococcus pneumoniae, UniProt A0A0H2ZN40); assay type: biochemical; details: for nH (positive cooperativity): ATPase/GTPase activity as a function of nucleotide concentration, fitted with positive cooperativity, proteoliposomes
Experimental: E. coli BL21(DE3) cells were transformed with pRSF-Duet1-BceAB WT, K48A or E170Q and selected on LB-agar plates containing 50 μg/mL kanamycin. One colony was inoculated into in 2L-baffled flasks containing 500 mL of 2YT medium and 50 μg/mL kanamycin and grown at 37°C, 180 rpm to OD600 of 0.6. Protein expression was induced by adding IPTG to a final concentration of 1 mM. Induction was performed overnight at 25°C and cells were harvested by centrifugation at 7,000 g for 20 min.
Cells were resuspended in buffer A (HEPES-NaOH 100 mM pH 8.0, NaCl 150 mM) and lysed by passaging them three times through a cell disruptor (Microfluidizer, Microfluidics) at 18,000 psi (or 1,24 x 108 Pa). Undisrupted cells and cell debris were removed by centrifugation at 15,000 x g for 30 min at 4°C. Membranes were harvested from the supernatant after ultracentrifugation at 150,000 x g for 1 h at 4°C. Membranes were resuspended in 20 mL of buffer A and centrifuged once again at 150,000 x g for 1 h at 4°C. Membrane pellets were homogenized in buffer HEPES-NaOH 100 mM pH 8.0, NaCl 150 mM and 20% glycerol, and stored at -80°C.
For the purification of BceAB, membranes from 0,5 L cell culture were diluted in buffer B (100 mM d’HEPES-NaOH pH 8, 150 mM NaCl, 10% glycerol) to a protein concentration of 4 mg/mL and solubilized with 0.5% (w/v) LMNG for 2 h at 4°C. After ultracentrifugation at 150,000 x g for 1 h at 4°C, the supernatant containing solubilized proteins was diluted four times using buffer B and loaded on Ni^2+-charged immobilized metal-ion affinity chromatography (IMAC) column (1 mL HisTrap HP, Cytiva). The column was washed with 10 mL of buffer B containing 0.005% (w/v) LMNG and 20 mM of imidazole. The column was further washed with the same buffer until OD280nm reached basal levels. BceAB was eluted by buffer B containing 0.005% (w/v) LMNG and an imidazole gradient from 20 to 500 mM of imidazole. Purified BceAB was dialyzed into buffer B containing 0.005% (w/v) LMNG and stored at -80°C.
The proteoliposomes were prepared as previously described for the transporter BmrA [50]. Proteoliposomes were loaded on sucrose gradient with different layers of 400 μL of 50 mM HEPES-KOH pH 8.0 buffer containing 30, 20, 15 or 10% of sucrose. One mL of proteoliposomes was loaded on the top of the sucrose gradient and ultra-centrifuged at 200,000 x g for 12 h at 4°C. Proteoliposomes were typically collected from the 15% layer and were loaded on SDS-PAGE to analyze and quantify the presence of BceAB by using a standard-curve of purified BceAB and ImageJ.
These activities were performed as previously described.

Compound: Planosporicin [Planosporicin (NAI-97)]
- Minimum Inhibitory Concentration, ΔbceAB (S. pneumoniae R6 ΔbceAB): 2 µg/mL
- Minimum Inhibitory Concentration, Δtcs01 (S. pneumoniae R6 Δtcs01): 2 µg/mL
- Minimum Inhibitory Concentration, WT (S. pneumoniae R6 WT): 16 µg/mL
- Fold sensitivity displayed by the KO strains (S. pneumoniae R6 WT): 8
- Minimum Inhibitory Concentration, ΔbceAB/tcs01 [1]: 2 µg/mL

Compound: ramoplanin
- MIC, Δhk01 (S. pneumoniae R800 Δhk01): 0.02 µg/mL
- MIC, bceAB-gfp [2]: 0.02 µg/mL
- Minimum Inhibitory Concentration, WT (S. pneumoniae D39 WT): 0.03 µg/mL
- Fold sensitivity diplayed by the KO strains (S. pneumoniae D39 WT): 1
- Minimum Inhibitory Concentration, ΔbceAB (S. pneumoniae D39 ΔbceAB): 0.03 µg/mL
- MIC, WT (S. pneumoniae R800 WT): 0.02 µg/mL
- MIC, ΔbceAB-Δhk01-PcomX-hk01 [3]: 0.02 µg/mL
- Minimum Inhibitory Concentration, ΔbceAB (S. pneumoniae R6 ΔbceAB): 0.02 µg/mL
- MIC, Δhk01-PcomX-hk01 [4]: 0.02 µg/mL
- MIC, ΔbceAB [5]: 0.02 µg/mL
- Minimum Inhibitory Concentration, Δtcs01 (S. pneumoniae R6 Δtcs01): 0.02 µg/mL
- Minimum Inhibitory Concentration, Δtcs01 (S. pneumoniae D39 Δtcs01): 0.03 µg/mL
- Minimum Inhibitory Concentration, ΔbceAB/tcs01 [6]: 0.03 µg/mL
- Minimum Inhibitory Concentration, WT (S. pneumoniae R6 WT): 0.02 µg/mL
- Fold sensitivity displayed by the KO strains (S. pneumoniae R6 WT): 1
- Minimum Inhibitory Concentration, ΔbceAB/tcs01 [1]: 0.02 µg/mL
- Effect on ATPase activity of BceAB ([7]; BceAB proteoliposomes, Fig 7B, triplicates, representative of at least two experiments): clear inhibitory effect

Compound: gramicidin
- Minimum Inhibitory Concentration, ΔbceAB (S. pneumoniae R6 ΔbceAB): 0.016 µg/mL
- Minimum Inhibitory Concentration, Δtcs01 (S. pneumoniae R6 Δtcs01): 0.016 µg/mL
- Minimum Inhibitory Concentration, WT (S. pneumoniae R6 WT): 0.016 µg/mL
- Fold sensitivity displayed by the KO strains (S. pneumoniae R6 WT): 1
- Minimum Inhibitory Concentration, ΔbceAB/tcs01 [1]: 0.016 µg/mL

Compound: Nc1nc2c(ncn2[C@@H]2O[C@H](COP(=O)(O)OP(=O)(O)OP(=O)(O)O)[C@@H](O)[C@H]2O)c(=O)[nH]1 [GTP]
- nH (positive cooperativity) [7]: 1.9

Compound: CC[C@H](C)[C@H](N)C(=O)N[C@@H](CC(N)=O)C(=O)N[C@@H](CC(C)C)C(=O)N[C@@H](CCCCN)C(=O)N[C@@H](C)C(=O)N[C@@H](CC(C)C)C(=O)N[C@@H](C)C(=O)N[C@@H](C)C(=O)N[C@@H](CC(C)C)C(=O)N[C@@H](C)C(=O)N[C@@H](CCCCN)C(=O)N[C@@H](CCCCN)C(=O)N[C@H](C(=O)N[C@@H](CC(C)C)C(N)=O)[C@@H](C)CC [mastoporan]
- Fold sensitivity displayed by the KO strains (S. pneumoniae R6 WT): 1

Compound: Nc1ncnc2c1ncn2[C@@H]1O[C@H](COP(=O)(O)OP(=O)(O)OP(=O)(O)O)[C@@H](O)[C@H]1O [ATP]
- nH (positive cooperativity) [7]: 2.4

Compound: actagardin
- MIC, Δhk01 (S. pneumoniae R800 Δhk01): 4 µg/mL
- MIC, bceAB-gfp [2]: 32 µg/mL
- Minimum Inhibitory Concentration, WT (S. pneumoniae D39 WT): 32 µg/mL
- Fold sensitivity diplayed by the KO strains (S. pneumoniae D39 WT): 16
- Minimum Inhibitory Concentration, ΔbceAB (S. pneumoniae D39 ΔbceAB): 2 µg/mL
- MIC, WT (S. pneumoniae R800 WT): 32 µg/mL
- MIC, ΔbceAB-Δhk01-PcomX-hk01 [3]: 4 µg/mL
- Minimum Inhibitory Concentration, ΔbceAB (S. pneumoniae R6 ΔbceAB): 2 µg/mL
- MIC, Δhk01-PcomX-hk01 [4]: 32 µg/mL
- MIC, ΔbceAB [5]: 4 µg/mL
- Minimum Inhibitory Concentration, Δtcs01 (S. pneumoniae R6 Δtcs01): 2 µg/mL
- Minimum Inhibitory Concentration, Δtcs01 (S. pneumoniae D39 Δtcs01): 2 µg/mL
- Minimum Inhibitory Concentration, ΔbceAB/tcs01 [6]: 2 µg/mL
- Minimum Inhibitory Concentration, WT (S. pneumoniae R6 WT): 32 µg/mL
- Fold sensitivity displayed by the KO strains (S. pneumoniae R6 WT): 16
- Minimum Inhibitory Concentration, ΔbceAB/tcs01 [1]: 2 µg/mL

Compound: CC[C@H](C)CCCCC(=O)N[C@@H](CCN)C(=O)N[C@H](C(=O)N[C@@H](CCN)C(=O)N[C@H]1CCNC(=O)[C@H]([C@@H](C)O)NC(=O)[C@H](CCN)NC(=O)[C@H](CCN)NC(=O)[C@H](CC(C)C)NC(=O)[C@@H](CC(C)C)NC(=O)[C@H](CCN)NC1=O)[C@@H](C)O [colistin] (X1-[Dab]T[Dab][Dab][Dab][dL]L[Dab][Dab]T; lactam 4-C (inferred); N-terminus assumed)
- Minimum Inhibitory Concentration, ΔbceAB (S. pneumoniae R6 ΔbceAB): 256 µg/mL
- Minimum Inhibitory Concentration, Δtcs01 (S. pneumoniae R6 Δtcs01): 256 µg/mL
- Minimum Inhibitory Concentration, WT (S. pneumoniae R6 WT): 256 µg/mL
- Fold sensitivity displayed by the KO strains (S. pneumoniae R6 WT): 1
- Minimum Inhibitory Concentration, ΔbceAB/tcs01 [1]: 256 µg/mL

Compound: Microbisporicin [Microbisporicin (NAI-107)]
- Minimum Inhibitory Concentration, ΔbceAB (S. pneumoniae R6 ΔbceAB): 0.008 µg/mL
- Minimum Inhibitory Concentration, Δtcs01 (S. pneumoniae R6 Δtcs01): 0.008 µg/mL
- Minimum Inhibitory Concentration, WT (S. pneumoniae R6 WT): 0.032 µg/mL
- Fold sensitivity displayed by the KO strains (S. pneumoniae R6 WT): 4
- Minimum Inhibitory Concentration, ΔbceAB/tcs01 [1]: 0.008 µg/mL
